Holding throughout (assay type): biochemical
For one assay, the target named is T1, 15-lipoxygenase (Glycine max, UniProt P08170).
T1 construct: 15-lipoxygenase obtained from soybean; from tissue; host or cells: soybean
T1 sequence (P08170 1-839): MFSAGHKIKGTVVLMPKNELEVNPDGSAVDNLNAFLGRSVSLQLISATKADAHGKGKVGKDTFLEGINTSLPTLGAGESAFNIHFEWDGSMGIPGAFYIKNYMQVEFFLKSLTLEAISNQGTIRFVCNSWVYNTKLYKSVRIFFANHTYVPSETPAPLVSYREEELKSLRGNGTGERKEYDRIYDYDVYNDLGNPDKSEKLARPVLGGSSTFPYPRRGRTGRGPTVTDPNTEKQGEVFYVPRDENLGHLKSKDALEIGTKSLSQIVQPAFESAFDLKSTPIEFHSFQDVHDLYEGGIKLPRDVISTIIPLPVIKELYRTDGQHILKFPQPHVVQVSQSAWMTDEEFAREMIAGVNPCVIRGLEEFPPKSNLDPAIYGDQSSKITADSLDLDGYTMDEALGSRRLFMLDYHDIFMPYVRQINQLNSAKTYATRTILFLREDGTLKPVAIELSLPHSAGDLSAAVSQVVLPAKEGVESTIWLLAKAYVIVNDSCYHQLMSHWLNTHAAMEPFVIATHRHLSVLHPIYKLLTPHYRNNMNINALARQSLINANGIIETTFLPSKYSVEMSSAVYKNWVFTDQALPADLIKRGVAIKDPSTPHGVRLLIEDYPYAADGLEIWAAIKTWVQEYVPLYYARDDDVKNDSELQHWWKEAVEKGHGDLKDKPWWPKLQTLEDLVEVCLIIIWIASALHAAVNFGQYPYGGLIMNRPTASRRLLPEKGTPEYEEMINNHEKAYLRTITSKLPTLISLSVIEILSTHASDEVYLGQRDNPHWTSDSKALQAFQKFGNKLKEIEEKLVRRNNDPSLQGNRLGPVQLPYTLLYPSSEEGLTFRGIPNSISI
Briefly: 15-lipoxygenase inhibition (15-lipoxygenase obtained from soybean). As to conditions: for inhibition at 10 µM: read-out: % Inhibition at Indicated Concentration, 15-lipoxygenase, 10 μM; for inhibition at 100 µM: read-out: % Inhibition at Indicated Concentration, 15-lipoxygenase, 100 μM. As to the method:
(§1) The compounds of this invention are potent inhibitors of 5-, 12- and 15-lipoxygenase. An assay to determine 5-lipoxygenase activity was performed in incubations containing various concentrations of the test compound and the 20,000×G supernatant from 7.5×10^6 homogenized RBL-1 cells. Reactions were initiated by the addition of radiolabeled arachidonic acid and terminated by acidification and ether extraction. Reaction products were separated from nonconverted substrate by thin layer chromatography and measured by liquid scintillatiton spectroscopy. Inhibition of 5-lipoxygenase activity was calculated as the ratio of the amounts of product formed in the presence and absence of inhibitor.
(§2) The inhibitory activities of the compounds of this invention against 12- and 15-lipoxygenase can be determined in the foregoing assay in which 12-lipoxygenase obtained from human platelets, or 15-lipoxygenase obtained from soybean, is substituted for the 5-lipoxygenase-containing cell supernatant fraction.

For a further assay, the target named is T2, 12-lipoxygenase (Homo sapiens, UniProt P18054).
T2 construct: 12-lipoxygenase obtained from human platelets; from tissue; host or cells: human platelets
T2 sequence (P18054 1-663): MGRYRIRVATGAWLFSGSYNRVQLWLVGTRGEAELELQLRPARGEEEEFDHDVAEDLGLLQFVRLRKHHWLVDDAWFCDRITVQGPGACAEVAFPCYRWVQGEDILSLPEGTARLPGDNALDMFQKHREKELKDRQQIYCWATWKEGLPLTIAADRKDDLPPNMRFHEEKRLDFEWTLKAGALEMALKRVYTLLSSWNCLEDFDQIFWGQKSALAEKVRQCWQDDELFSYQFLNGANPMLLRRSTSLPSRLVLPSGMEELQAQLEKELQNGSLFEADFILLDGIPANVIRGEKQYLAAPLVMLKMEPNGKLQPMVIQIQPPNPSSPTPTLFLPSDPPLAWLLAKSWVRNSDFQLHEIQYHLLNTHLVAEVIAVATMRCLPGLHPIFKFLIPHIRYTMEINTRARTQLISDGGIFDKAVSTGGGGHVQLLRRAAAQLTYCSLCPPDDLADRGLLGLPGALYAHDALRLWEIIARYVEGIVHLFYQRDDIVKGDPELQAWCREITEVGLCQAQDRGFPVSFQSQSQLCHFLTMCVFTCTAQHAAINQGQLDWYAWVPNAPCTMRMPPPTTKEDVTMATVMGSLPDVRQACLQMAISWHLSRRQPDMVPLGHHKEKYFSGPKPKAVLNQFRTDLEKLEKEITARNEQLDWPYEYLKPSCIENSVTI
In words: 12-lipoxygenase inhibition (12-lipoxygenase obtained from human platelets). As to conditions: for inhibition at 10 µM: read-out: % Inhibition at Indicated Concentration, 12-lipoxygenase, 10 μM; for inhibition at 100 µM: read-out: % Inhibition at Indicated Concentration, 12-lipoxygenase, 100 μM. As to the method:
as §1, §2

Another assay concerns the target T3, 5-lipoxygenase (Rattus norvegicus, UniProt P12527).
T3 construct: 20,000×G supernatant from 7.5×10^6 homogenized RBL-1 cells; endogenous in cells; host or cells: RBL-1 cells (20,000xG supernatant of homogenate)
T3 sequence (P12527 1-673): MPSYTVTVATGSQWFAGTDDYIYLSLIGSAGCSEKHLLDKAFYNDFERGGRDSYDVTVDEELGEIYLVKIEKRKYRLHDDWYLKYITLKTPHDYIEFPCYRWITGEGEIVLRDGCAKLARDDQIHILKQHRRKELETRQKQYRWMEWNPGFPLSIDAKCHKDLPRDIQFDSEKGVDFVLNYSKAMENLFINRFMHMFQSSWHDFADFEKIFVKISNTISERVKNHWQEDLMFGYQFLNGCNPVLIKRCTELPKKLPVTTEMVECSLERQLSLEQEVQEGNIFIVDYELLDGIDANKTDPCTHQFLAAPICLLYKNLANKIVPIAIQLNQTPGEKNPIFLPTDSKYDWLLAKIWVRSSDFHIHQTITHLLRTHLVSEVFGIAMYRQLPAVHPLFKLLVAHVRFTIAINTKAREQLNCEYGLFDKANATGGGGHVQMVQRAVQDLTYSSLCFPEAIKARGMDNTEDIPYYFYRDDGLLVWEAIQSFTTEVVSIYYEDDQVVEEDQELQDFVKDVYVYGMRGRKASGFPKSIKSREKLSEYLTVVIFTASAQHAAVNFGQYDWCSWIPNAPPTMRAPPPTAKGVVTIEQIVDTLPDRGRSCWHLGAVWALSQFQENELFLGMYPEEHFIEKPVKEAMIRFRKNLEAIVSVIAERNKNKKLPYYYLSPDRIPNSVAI
Briefly: 5-Lipoxygenase IC50 determination (20,000×G supernatant of homogenized RBL-1 cells, radiolabeled arachidonic acid). As to conditions: RBL-1 cell 20,000×G supernatant. As to the method: Reactions were initiated by the addition of radiolabeled arachidonic acid and terminated by acidification and ether extraction. Reaction products were separated from nonconverted substrate by thin layer chromatography and measured by liquid scintillatiton spectroscopy. Inhibition of 5-lipoxygenase activity was calculated as the ratio of the amounts of product formed in the presence and absence of inhibitor. […]

`O=C(C=Cc1ccc2ccccc2c1)NO` [Example 1, 3-(2-naphthyl)acrylohydroxamic acid]: at 15-lipoxygenase, the inhibition at 10 µM was 2% and the inhibition at 100 µM is 19%. Further, at 12-lipoxygenase, the inhibition at 10 µM was determined as 92% and the inhibition at 100 µM came out at 100%.
`CN(O)C(=O)C=Cc1ccc2ccccc2c1` [Example 2, N-methyl 3-(2-naphthyl)acrylohydroxamic acid]: on 5-lipoxygenase, half-maximal inhibition (IC50) was put at 260 nM. Moreover, at 15-lipoxygenase, the inhibition at 10 µM turned out to be 43% and the inhibition at 100 µM amounted to 83%. Also, at 12-lipoxygenase, the inhibition at 10 µM was determined as 88%.
On 5-lipoxygenase, `CC(C)N(O)C(=O)C=Cc1ccc2ccccc2c1` [Example 3, N-isopropyl 3-(2-naphthyl)acrylohydroxamic acid] showed an IC50 of 150 nM. The inhibition at 10 µM at 15-lipoxygenase stood at 31%; on 12-lipoxygenase, 75%. In addition, the results for the inhibition at 100 µM at 15-lipoxygenase and at 12-lipoxygenase were 63% and 84%, respectively.
The compound `O=C(C=Cc1ccc2ccccc2c1)N(O)C1CCCCC1` [Example 4, N-cyclohexyl 3-(2-naphthyl)acrylohydroxamic acid] gave an IC50 on 5-lipoxygenase of 260 nM. On 15-lipoxygenase, the inhibition at 10 µM turned out to be 43% and the inhibition at 100 µM was 83%. Moreover, the inhibition at 10 µM on 12-lipoxygenase was found to be 66%.
`O=C(C=Cc1ccc2ccccc2c1)N(O)c1ccccc1` [Example 5, N-phenyl 3-(2-naphthyl)acrylohydroxamic acid] yielded an IC50 on 5-lipoxygenase of 200 nM. On 15-lipoxygenase, the inhibition at 10 µM came to 22% and the inhibition at 100 µM stood at 30%. For the same compound, the inhibition at 10 µM at 12-lipoxygenase is 82%.
As to `CC(=Cc1ccc2ccccc2c1)C(=O)NO` [Example 6, 2-methyl-3-(2-naphthyl)acrylohydroxamic acid], on 15-lipoxygenase, the inhibition at 10 µM worked out at 45% and the inhibition at 100 µM worked out at 100%.
For `CC(=Cc1ccc2ccccc2c1)C(=O)N(C)O` [Example 7, 2,N-dimethyl-3-(2-naphthyl)acrylohydroxamic acid], at 15-lipoxygenase, the inhibition at 10 µM was found to be 37% and the inhibition at 100 µM was found to be 88%.
On the same counts, the results for `CN(O)C(=O)C(=Cc1ccc2ccccc2c1)c1ccccc1` [Example 8, N-methyl-3-(2-naphthyl)-2-phenyl acrylohydroxamic acid] are 38% and 62%.
In the case of `CN(O)C(=O)C(=Cc1ccc2ccccc2c1)c1ccc(Cl)cc1` [Example 10, N-methyl-3-(2-naphthyl)-2-(4-chlorophenyl)acrylohydroxamic acid], the inhibition at 10 µM at 12-lipoxygenase turned out to be 98%.
Take `CC(=CC(=O)N(C)O)c1ccc2ccccc2c1` [Example 12, 3,N-dimethyl-3-(2-naphthyl)acrylohydroxamic acid]: on 15-lipoxygenase, the inhibition at 10 µM turned out to be 37% and the inhibition at 100 µM was 88%.
For `CN(O)C(=O)C=Cc1cc2ccccc2cc1[N+](=O)[O-]` [Example 13, N-methyl-3-(3-nitro-2-naphthyl)acrylohydroxamic acid], at 15-lipoxygenase, the inhibition at 10 µM came to 19% and the inhibition at 100 µM came to 49%. Moreover, on 12-lipoxygenase, the inhibition at 10 µM was found to be 81% and the inhibition at 100 µM came out at 97%.
`CCCCCC=Cc1ccc2ccc(C=CC(=O)N(C)O)cc2c1` [Example 14, N-methyl-3-[7-(1-heptenyl)-2-naphthyl]acrylohydroxamic acid] showed a half-inhibitory concentration (IC50) on 5-lipoxygenase of 510 nM. The inhibition at 10 µM at 15-lipoxygenase turned out to be 59%; on 12-lipoxygenase it was 93%. Moreover, the results for the inhibition at 100 µM on 15-lipoxygenase and on 12-lipoxygenase were 65% and 98%, respectively.
Consider `CN(O)C(=O)C=Cc1cccc2ccccc12` [Example 15, N-methyl-3-(1-naphthyl)acrylohydroxamic acid], for which the IC50 against 5-lipoxygenase is 200 nM. Also, the inhibition at 10 µM amounted to 29% on 15-lipoxygenase and 82% at 12-lipoxygenase. Further, the values for the inhibition at 100 µM at 15-lipoxygenase and at 12-lipoxygenase were 88% and 100%, respectively.
For the compound `CN(O)C(=O)C=Cc1ccc([N+](=O)[O-])c2ccccc12` [Example 16, N-methyl-3-(4-nitro-1-naphthyl)acrylohydroxamic acid], the IC50 at 5-lipoxygenase is 130 nM.
Same read-out and setting: with `O=C(CCC/C=C\c1ccc2ccccc2c1)NO` [Example 17, Z-6-(2-naphthyl)hex-5-enohydroxamic acid] the figure was 1600 nM.
On 5-lipoxygenase, `O=C(CCc1ccc2ccccc2c1)NO` [Example 18, 3-(2-naphthyl)propiohydroxamic acid] came in with an IC50 of 9700 nM. Moreover, at 15-lipoxygenase, the inhibition at 10 µM was 12% and the inhibition at 100 µM was found to be 31%.
`Cc1ccc2ccc(CCC(=O)NO)cc2c1` [Example 19, 3-(7-methyl-2-napthalene)propiohydroxamic acid] yielded an IC50 against 5-lipoxygenase of 2900 nM. Moreover, the results for the inhibition at 10 µM at 15-lipoxygenase and at 12-lipoxygenase were 19% and 82%, respectively. Moreover, the figures for the inhibition at 100 µM on 15-lipoxygenase and at 12-lipoxygenase were 33% and 99%, respectively.

As a reminder, the IC50 is the midpoint of a concentration-inhibition curve. A high value points to weaker potency in that assay.

The record behind these values is patent US4608390A, “Lipoxygenase inhibiting compounds” (Abbott Laboratories, priority 1985, dated 1986).
